In patent US10981891B2, “Antibacterial compounds and uses thereof” (priority 2016, dated 2021) one finds MIC data, which are given here for 30 molecules.

The experiment deals with M. tuberculosis H37Rv (ATCC 27294). Kind of experiment: Microplate Alamar Blue assay (MABA), MIC against replicating M. tuberculosis H37Rv. The class given is cell-based. As to conditions: Mycobacterium tuberculosis, 168 h, read-out: M. tuberculosis MIC.
[1] abbreviates: H37Rv, MABA, 7H12 media, 7 days at 37° C., MIC = lowest concentration reducing fluorescence by 90% relative to controls.

Each structure is given as a SMILES string. In brackets after ≈: the same amount, converted by molar mass. Like-named read-outs stand apart in the source and are kept apart here.

For `COc1cc(C(O)(CCN(C)C)C(c2cccc(C)c2)c2cc3cc(Br)ccc3nc2OC)cc(OC)n1` (stereo not drawn) [Example 1, 1-(6-Bromo-2-methoxyquinolin-3-yl)-2-(2,6-dimethoxypyridin-4-yl)-4-(dimethylamino)-1-(m-tolyl)butan-2-ol], under setting [1], the MIC is < 0.02 µg/mL.
With `COc1nc2ccc(Br)cc2cc1C(c1ccccc1)C(O)(CCN(C)C)c1cccc2ccoc12` (stereo not drawn) [Example 2, 2-(Benzofuran-7-yl)-1-(6-bromo-2-methoxyquinolin-3-yl)-4-(dimethylamino)-1-phenylbutan-2-ol], under setting [1], the MIC was found to be 0.07 µg/mL (≈ 0.128 µM).
Still for that read-out and setting: the same measure for `COc1cc(C(c2cc3cc(Br)ccc3nc2OC)C(O)(CCN(C)C)c2cccc(F)c2)cnc1OC` (stereo not drawn) [Example 3, 1-(6-Bromo-2-methoxyquinolin-3-yl)-1-(5,6-dimethoxypyridin-3-yl)-4-(dimethylamino)-2-(3-fluorophenyl)butan-2-ol]: 0.47 µg/mL (≈ 0.804 µM); for `COc1nc2ccc(Br)cc2cc1C(c1ccnc(OC)c1OC)C(O)(CCN(C)C)c1cccc(C)c1` (stereo not drawn) [Example 4, 1-(6-Bromo-2-methoxyquinolin-3-yl)-1-(2,3-dimethoxypyridin-4-yl)-4-(dimethylamino)-2-(m-tolyl)butan-2-ol]: 0.02 µg/mL (≈ 0.0345 µM).
On to `COc1nc2ccc(Br)cc2cc1C(c1ccnc(OC)c1OC)C(O)(CCN(C)C)c1cc2ccccc2o1` (stereo not drawn) [Example 7, 2-(Benzofuran-2-yl)-1-(6-bromo-2-methoxyquinolin-3-yl)-1-(2,3-dimethoxypyridin-4-yl)-4-(dimethylamino)butan-2-ol], for which the minimum inhibitory concentration (MIC) came to 0.03 µg/mL (≈ 0.0495 µM).
Regarding `COc1nc2ccc(Br)cc2cc1C(c1ccnc(OC)c1OC)C(O)(CCN(C)C)c1ccc2occc2c1` (stereo not drawn) [Example 10, 2-(Benzofuran-5-yl)-1-(6-bromo-2-methoxyquinolin-3-yl)-1-(2,3-dimethoxypyridin-4-yl)-4-(dimethylamino)butan-2-ol], under setting [1], the MIC came to 0.03 µg/mL (≈ 0.0495 µM).
Same read-out and setting: the same measure for `COc1cc(C(O)(CCN(C)C)C(c2ccc(C)s2)c2cc3cc(Br)ccc3nc2OC)cc(OC)n1` (stereo not drawn) [Example 11, 1-(6-Bromo-2-methoxyquinolin-3-yl)-2-(2,6-dimethoxypyridin-4-yl)-4-(dimethylamino)-1-(5-methylthiophen-2-yl)butan-2-ol]: < 0.02 µg/mL.
Still for that read-out and setting: the same measure for `CCOc1cc(C(c2cc3cc(Br)ccc3nc2OC)C(O)(CCN(C)C)c2cccc3ccoc23)cc(OCC)n1` (stereo not drawn) [Example 12, 2-(Benzofuran-7-yl)-1-(6-bromo-2-methoxyquinolin-3-yl)-1-(2,6-diethoxypyridin-4-yl)-4-(dimethylamino)butan-2-ol]: < 0.01 µg/mL; for `COc1nc2ccc(Br)cc2cc1C(c1ccccc1)C(O)(CCN(C)C)c1cccc2occc12` (stereo not drawn) [Example 14, 2-(Benzofuran-4-yl)-1-(6-bromo-2-methoxyquinolin-3-yl)-4-(dimethylamino)-1-phenylbutan-2-ol]: 0.06 µg/mL (≈ 0.11 µM).
As for `COc1nc2ccc(Br)cc2cc1C(c1ccccc1)C(O)(CCN(C)C)c1cccc2ccsc12` (stereo not drawn) [Example 15, 2-(Benzo[b]thiophen-7-yl)-1-(6-bromo-2-methoxyquinolin-3-yl)-4-(dimethylamino)-1-phenylbutan-2-ol], the minimal inhibitory concentration (MIC) came out at 0.02 µg/mL (≈ 0.0356 µM).
`COc1cc(C(O)(CCN(C)C)C(c2cc3cc(Br)ccc3nc2OC)c2cccc(OC)c2F)cc(OC(C)C)n1` (stereo not drawn) [Example 16, 1-(6-Bromo-2-methoxyquinolin-3-yl)-4-(dimethylamino)-1-(2-fluoro-3-methoxyphenyl)-2-(2-isopropoxy-6-methoxypyridin-4-yl)butan-2-ol]: the MIC under setting [1] is < 0.02 µg/mL.
Same read-out and setting: the same measure for `CCOc1cc(C(O)(CCN(C)C)C(c2cc3cc(Br)ccc3nc2OC)c2cccc(OC)c2F)cc(OC)n1` (stereo not drawn) [Example 17, 1-(6-Bromo-2-methoxyquinolin-3-yl)-4-(dimethylamino)-2-(2-ethoxy-6-methoxypyridin-4-yl)-1-(2-fluoro-3-methoxyphenyl)butan-2-ol]: < 0.01 µg/mL; for `COc1cc(C(O)(CCN(C)C)C(c2cc3cc(Br)ccc3nc2OC)c2ccnc(OC)c2OC)cc(OC(C)C)n1` (stereo not drawn) [Example 18, 1-(6-Bromo-2-methoxyquinolin-3-yl)-1-(2,3-dimethoxypyridin-4-yl)-4-(dimethylamino)-2-(2-isopropoxy-6-methoxypyridin-4-yl)butan-2-ol]: < 0.01 µg/mL; for `CCOc1cc(C(O)(CCN(C)C)C(c2cc3cc(Br)ccc3nc2OC)c2ccnc(OC)c2OC)cc(OC)n1` (stereo not drawn) [Example 20, 1-(6-Bromo-2-methoxyquinolin-3-yl)-1-(2,3-dimethoxypyridin-4-yl)-4-(dimethylamino)-2-(2-ethoxy-6-methoxypyridin-4-yl)butan-2-ol]: < 0.02 µg/mL.
Same read-out and setting: the same measure for `COc1cc(C(c2cc3cc(Br)ccc3nc2OC)C(O)(CCN(C)C)c2cccc3ccoc23)cc(OC(C)C)n1` (stereo not drawn) [Example 21, 2-(Benzofuran-7-yl)-1-(6-bromo-2-methoxyquinolin-3-yl)-4-(dimethylamino)-1-(2-isopropoxy-6-methoxypyridin-4-yl)butan-2-ol]: < 0.02 µg/mL; for `CCOc1cc(C(c2cc3cc(Br)ccc3nc2OC)C(O)(CCN(C)C)c2cccc3ccoc23)cc(OC)n1` (stereo not drawn) [Example 22, 2-(Benzofuran-7-yl)-1-(6-bromo-2-methoxyquinolin-3-yl)-4-(dimethylamino)-1-(2-ethoxy-6-methoxypyridin-4-yl)butan-2-ol]: < 0.02 µg/mL.
Take `CCOc1cc(C(O)(CCN(C)C)C(c2cc3cc(Br)ccc3nc2OC)c2ccnc(OC)c2OC)cc(OC(C)C)n1` (stereo not drawn) [Example 23, 1-(6-Bromo-2-methoxyquinolin-3-yl)-1-(2,3-dimethoxypyridin-4-yl)-4-(dimethylamino)-2-(2-ethoxy-6-isopropoxypyridin-4-yl)butan-2-ol]: under setting [1], the minimal inhibitory concentration (MIC) was < 0.02 µg/mL.
The same measure, in the same setting: the result for `CCOc1cc(C(O)(CCN(C)C)C(c2cc(OC)nc(OC)c2)c2cc3cc(Br)ccc3nc2OC)cc(OC(C)C)n1` (stereo not drawn) [Example 24, 1-(6-Bromo-2-methoxyquinolin-3-yl)-1-(2,6-dimethoxypyridin-4-yl)-4-(dimethylamino)-2-(2-ethoxy-6-isopropoxypyridin-4-yl)butan-2-ol] reads < 0.02 µg/mL; that for `COc1cc(C(O)(CCN(C)C)C(c2cccc(C)c2)c2cc3cc(Br)ccc3nc2OC)cc(OC(C)C)n1` (stereo not drawn) [Example 25, 1-(6-Bromo-2-methoxyquinolin-3-yl)-4-(dimethylamino)-2-(2-isopropoxy-6-methoxypyridin-4-yl)-1-(m-tolyl)butan-2-ol], 0.01 µg/mL (≈ 0.0164 µM).
On the same count and under the same terms, the result for `CCOc1cc(C(O)(CCN(C)C)C(c2cc3cc(Cl)ccc3nc2OC)c2cccc(OC)c2F)cc(OCC)n1` (stereo not drawn) [Example 27, 1-(6-Chloro-2-methoxyquinolin-3-yl)-2-(2,6-diethoxypyridin-4-yl)-4-(dimethylamino)-1-(2-fluoro-3-methoxyphenyl)butan-2-ol] reads 0.01 µg/mL (≈ 0.0167 µM).
The same measure, in the same setting: the same measure for `CCCOc1cc(C(O)(CCN(C)C)C(c2cc3cc(Br)ccc3nc2OC)c2ccnc(OC)c2OC)cc(OC)n1` (stereo not drawn) [Example 28, 1-(6-Bromo-2-methoxyquinolin-3-yl)-1-(2,3-dimethoxypyridin-4-yl)-4-(dimethylamino)-2-(2-methoxy-6-propoxypyridin-4-yl)butan-2-ol]: 0.01 µg/mL (≈ 0.0153 µM); for `COc1cc(C(O)(CCN(C)C)C(c2cc3cc(Br)ccc3nc2OC)c2ccnc(OC)c2OC)cc(OC2CCC2)n1` (stereo not drawn) [Example 30, 1-(6-Bromo-2-methoxyquinolin-3-yl)-2-(2-cyclobutoxy-6-methoxypyridin-4-yl)-1-(2,3-dimethoxypyridin-4-yl)-4-(dimethylamino)butan-2-ol]: < 0.004 µg/mL; for `CCOc1cc(C(O)(CCN(C)C)C(c2cccc(C)c2)c2cc3cc(Cl)ccc3nc2OC)cc(OCC)n1` (stereo not drawn) [Example 32, 1-(6-Chloro-2-methoxyquinolin-3-yl)-2-(2,6-diethoxypyridin-4-yl)-4-(dimethylamino)-1-(m-tolyl)butan-2-ol]: 0.02 µg/mL (≈ 0.0355 µM).
Consider `COc1cc(C(O)(CCN(C)C)C(c2cc3cc(Br)ccc3nc2OC)c2cc(C)sc2C)cc(OC)n1` (stereo not drawn) [Example 33, 1-(6-Bromo-2-methoxyquinolin-3-yl)-2-(2,6-dimethoxypyridin-4-yl)-4-(dimethylamino)-1-(2,5-dimethylthiophen-3-yl)butan-2-ol], for which the MIC under setting [1] is < 0.02 µg/mL.
Still for that read-out and setting: the same measure for `CCOc1cc(C(O)(CCN(C)C)C(c2cccc(C)c2)c2cc3cc(Br)ccc3nc2OC)cc(OCC)n1` (stereo not drawn) [Example 34, 1-(6-Bromo-2-methoxyquinolin-3-yl)-2-(2,6-diethoxypyridin-4-yl)-4-(dimethylamino)-1-(m-tolyl)butan-2-ol]: 0.04 µg/mL (≈ 0.0657 µM).
Take `COc1cccc(C(c2cc3cc(Br)ccc3nc2OC)C(O)(CCN(C)C)c2cc(C)nc(C)c2)c1OC` (stereo not drawn) [Example 37, 1-(6-Bromo-2-methoxyquinolin-3-yl)-1-(2,3-dimethoxyphenyl)-4-(dimethylamino)-2-(2,6-dimethylpyridin-4-yl)butan-2-ol]: the MIC under setting [1] turned out to be 0.08 µg/mL (≈ 0.135 µM).
The same measure, in the same setting: the result for `COc1cc(C(O)(CCN(C)C)C(c2cccc(F)c2)c2cc3cc(Br)ccc3nc2OC)cc(OC)n1` (stereo not drawn) [Example 39, 1-(6-Bromo-2-methoxyquinolin-3-yl)-2-(2,6-dimethoxypyridin-4-yl)-4-(dimethylamino)-1-(3-fluorophenyl)butan-2-ol] reads < 0.02 µg/mL.
As to `COc1nc2ccc(Br)cc2cc1C(c1ccccc1)C(O)(CCN(C)C)c1cccc2c1CCC2` (stereo not drawn) [Example 40, 1-(6-Bromo-2-methoxyquinolin-3-yl)-2-(2,3-dihydro-1H-inden-4-yl)-4-(dimethylamino)-1-phenylbutan-2-ol], the MIC was found to be 0.07 µg/mL (≈ 0.128 µM).
Take `COc1cc(C(O)(CCN(C)C)C(c2ccccc2)c2cc3cc(I)ccc3nc2OC)cc(OC)n1` (stereo not drawn) [Example 42, 2-(2,6-Dimethoxypyridin-4-yl)-4-(dimethylamino)-1-(6-iodo-2-methoxyquinolin-3-yl)-1-phenylbutan-2-ol]: under setting [1], the MIC was < 0.02 µg/mL.
Take `CCSc1cc(C(O)(CCN(C)C)C(c2cc3cc(Br)ccc3nc2OC)c2cccc(OC)c2F)cc(SCC)n1` (stereo not drawn) [Example 44, 2-(2,6-Bis(ethylthio)pyridin-4-yl)-1-(6-bromo-2-methoxyquinolin-3-yl)-4-(dimethylamino)-1-(2-fluoro-3-methoxyphenyl)butan-2-ol]: under setting [1], the MIC is < 0.02 µg/mL.
